Values after ≈ are worked out from the molar mass of the structure shown.
Columns and labels:
[1] = tested on: E. coli Nissle 1917 and E. coli G58-1; test: Effect against beneficial microbes; type: cell-based, Escherichia coli; details: 100 µM
Description: SMs were screened against different beneficial microbes to determine their specificity as described previously. SMs were added at 100 µM to 100 µL of 0.05 OD600 adjusted bacterial cultures in specific growth media in 96-well plate, and plate was incubated under indicated conditions. The specific growth media and conditions required for beneficial microbes limited the use of minimal media. Following incubation, endpoint OD600 was measured and cultures from the wells with non-elevated OD600 were plated on selective agar plates to determine the bactericidal effect.

E. coli BW25113 = tested on: E. coli BW25113; design: method as in https://pubchem.ncbi.nlm.nih.gov/bioassay/710; details: 100 µM; ref https://pubchem.ncbi.nlm.nih.gov/bioassay/710; cited from earlier work
APEC O18 = test: MIC and MBC determination in M63 media; type: cell-based; details: Escherichia coli
[2] = tested on: intracellular APEC O78 in HD11 cells; test: Intracellular survival assay; type: cell-based, Escherichia coli; details: for minimal effective concentration: Escherichia coli, O78, HD11, 6 h treatment, read-out: SMs intracellular APEC clearance concentration; for intracellular APEC clearance concentration as multiple of MIC (superscript): O78, HD11; for concentration at which the SM significantly (P < 0.01) reduced intracellular APEC (superscript of t-statistic): O78, HD11, 6 h
Procedure, shortened: (§1)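 Viable intracellular CFU, enumerated on LB agar after 0.1% Triton X-100 lysis, were compared between small-molecule-treated and 1% DMSO-treated wells. Host cells had been infected at MOI 10 with mid-log APEC for 1 h (HD11, THP-1) or 3 h (Caco-2).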

[3] = tested on: intracellular APEC O1 in Caco-2 cells; test: Intracellular survival assay; type: cell-based, Escherichia coli; details: for minimal effective concentration: Escherichia coli, O1, Caco-2, 6 h treatment, read-out: SMs intracellular APEC clearance concentration; for intracellular APEC clearance concentration as multiple of MIC (superscript): O1, Caco-2; for concentration at which the SM significantly (P < 0.01) reduced intracellular APEC (superscript of t-statistic): O1, Caco-2, 6 h
Procedure, shortened: as §1

[4] = tested on: intracellular APEC O2 in THP-1 cells; test: Intracellular survival assay; type: cell-based, Escherichia coli; details: for minimal effective concentration: Escherichia coli, O2, THP-1, 6 h treatment, read-out: SMs intracellular APEC clearance concentration; for concentration at which the SM significantly (P < 0.01) reduced intracellular APEC (superscript of t-statistic): O2, THP-1, 6 h
Procedure, shortened: as §1

[5] = tested on: intracellular APEC O78 in THP-1 cells; test: Intracellular survival assay; type: cell-based, Escherichia coli; details: for minimal effective concentration: Escherichia coli, O78, THP-1, 6 h treatment, read-out: SMs intracellular APEC clearance concentration; for intracellular APEC clearance concentration as multiple of MIC (superscript): O78, THP-1; for concentration at which the SM significantly (P < 0.01) reduced intracellular APEC (superscript of t-statistic): O78, THP-1, 6 h
Procedure, shortened: as §1

[6] = tested on: intracellular APEC O1 in THP-1 cells; test: Intracellular survival assay; type: cell-based, Escherichia coli; details: for minimal effective concentration: Escherichia coli, O1, THP-1, 6 h treatment, read-out: SMs intracellular APEC clearance concentration; for concentration at which the SM significantly (P < 0.01) reduced intracellular APEC (superscript of t-statistic): O1, THP-1, 6 h
Procedure, shortened: as §1

[7] = tested on: intracellular APEC O1 in HD11 cells; test: Intracellular survival assay; type: cell-based, Escherichia coli; details: for minimal effective concentration: Escherichia coli, O1, HD11, 6 h treatment, read-out: SMs intracellular APEC clearance concentration; for concentration at which the SM significantly (P < 0.01) reduced intracellular APEC (superscript of t-statistic): O1, HD11, 6 h
Procedure, shortened: as §1

[8] = tested on: intracellular APEC O2 in HD11 cells; test: Intracellular survival assay; type: cell-based, Escherichia coli; details: for minimal effective concentration: Escherichia coli, O2, HD11, 6 h treatment, read-out: SMs intracellular APEC clearance concentration; for intracellular APEC clearance concentration as multiple of MIC (superscript): O2, HD11; for concentration at which the SM significantly (P < 0.01) reduced intracellular APEC (superscript of t-statistic): O2, HD11, 6 h
Procedure, shortened: as §1

APEC O78 = test: Scanning electron microscopy; type: cell-based, Escherichia coli; details: 2X MBC
Description: The SMs treated APEC O78 cultures prepared above were also processed for scanning electron microscopy (SEM) as described previously. […] Briefly, one volume of bacterial culture was mixed with one volume of fixative (3% glutaraldehyde, 1% paraformaldehyde in 0.1 M potassium phosphate buffer, pH 7.2), and incubated at 4 °C overnight. The fixed bacterial cells were then centrifuged for 5 mins at 1,200 × g, washed twice with PBS, and resuspended in 1% osmium tetroxide for 1 h at room temperature in the dark, followed by serial dehydration of the sample in ethanol and platinum splatter-coating. Visualization and imaging of the sample was performed using a Hitachi S-4700 scanning electron microscope.

CCN1/C(=C/c2ccc3ccccc3[n+]2CC)C=Cc2ccccc21 [SM9]
effect on E. coli Nissle 1917 and E. coli G58-1 [1]: did not have effect | growth inhibition of E. coli BW25113 (E. coli BW25113): 57% | MBC (APEC O18): 100 µM | MIC (APEC O18): 25 µM | minimal effective concentration [2]: 100 µM | intracellular APEC clearance concentration as multiple of MIC (superscript) [2]: c (4X MIC) | concentration at which the SM significantly (P < 0.01) reduced intracellular APEC (superscript of t-statistic) [2]: c (2XMIC) | minimal effective concentration [3]: 100 µM | intracellular APEC clearance concentration as multiple of MIC (superscript) [3]: c (4X MIC) | concentration at which the SM significantly (P < 0.01) reduced intracellular APEC (superscript of t-statistic) [3]: c (2XMIC) | minimal effective concentration [4]: 50 µM | concentration at which the SM significantly (P < 0.01) reduced intracellular APEC (superscript of t-statistic) [4]: b (1X MIC) | minimal effective concentration [5]: 50 µM | intracellular APEC clearance concentration as multiple of MIC (superscript) [5]: b (2X MIC) | concentration at which the SM significantly (P < 0.01) reduced intracellular APEC (superscript of t-statistic) [5]: b (1X MIC) | minimal effective concentration [6]: 50 µM | intracellular APEC clearance concentration as multiple of MIC (superscript) ([6]; O1, THP-1): b (2X MIC) | concentration at which the SM significantly (P < 0.01) reduced intracellular APEC (superscript of t-statistic) [6]: b (1X MIC) | minimal effective concentration [7]: 100 µM | concentration at which the SM significantly (P < 0.01) reduced intracellular APEC (superscript of t-statistic) [7]: b (1X MIC) | minimal effective concentration [8]: 100 µM | intracellular APEC clearance concentration as multiple of MIC (superscript) [8]: c (4X MIC) | concentration at which the SM significantly (P < 0.01) reduced intracellular APEC (superscript of t-statistic) [8]: c (2XMIC)

CC(=O)OC(C(Br)C(=O)c1ccc([N+](=O)[O-])cc1)C(Cl)(Cl)Cl (stereo not drawn) [SM10]
cell morphology in SEM (APEC O78): shortened cells (~0.5 µM) and blebbing at both cell poles | effect on E. coli Nissle 1917 and E. coli G58-1 [1]: did not have effect | MBC (APEC O18): 100 µM (≈ 43.3 µg/mL) | MIC (APEC O18): 25 µM (≈ 10.8 µg/mL) | minimal effective concentration [2]: 50 µM | intracellular APEC clearance concentration as multiple of MIC (superscript) [2]: b (2X MIC) | concentration at which the SM significantly (P < 0.01) reduced intracellular APEC (superscript of t-statistic) [2]: c (2XMIC) | minimal effective concentration [3]: 100 µM | intracellular APEC clearance concentration as multiple of MIC (superscript) [3]: c (4X MIC) | concentration at which the SM significantly (P < 0.01) reduced intracellular APEC (superscript of t-statistic) [3]: b (1X MIC) | minimal effective concentration [4]: 50 µM | concentration at which the SM significantly (P < 0.01) reduced intracellular APEC (superscript of t-statistic) [4]: b (1X MIC) | minimal effective concentration [5]: 100 µM | intracellular APEC clearance concentration as multiple of MIC (superscript) [5]: c (4X MIC) | concentration at which the SM significantly (P < 0.01) reduced intracellular APEC (superscript of t-statistic) [5]: b (1X MIC) | minimal effective concentration [6]: > 100 µM | concentration at which the SM significantly (P < 0.01) reduced intracellular APEC (superscript of t-statistic) [6]: b (1X MIC) | minimal effective concentration [7]: > 100 µM | concentration at which the SM significantly (P < 0.01) reduced intracellular APEC (superscript of t-statistic) [7]: b (1X MIC) | minimal effective concentration [8]: 100 µM | intracellular APEC clearance concentration as multiple of MIC (superscript) [8]: c (4X MIC) | concentration at which the SM significantly (P < 0.01) reduced intracellular APEC (superscript of t-statistic) [8]: b (1X MIC)
